Reference: the supplement of paper PMC11061612

Legend:
Test in all cases: combination Emax (second highest fraction inhibited in the dose matrix, 72 h); higher = more inhibition; extreme values may be limits of the assay
[1] = test system: HCC1419 (Breast Carcinoma)
Summary of the method: (§1)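 After 24 hours at 37°C and 5% CO2 in 1536-well plates, cells in DMEM/F12 or RPMI plus 10% FBS received two-drug dose matrices for 72 hours. Viability came from CellTiter-Glo 2.0 luminescence and was scaled as inhibition, anchored at 0 by vehicle wells and at 1 by blank wells. Combination Emax is taken as the second-highest inhibition in the matrix, and Bliss excess as the observed combination effect less EA + EB − EA·EB, with EA and EB the single-agent effects.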

[2] = test system: NCCIT (Other Solid Carcinomas)
Summary of the method: as §1

[3] = test system: ST486 (Burkitt's Lymphoma)
Summary of the method: as §1

[4] = test system: T-T (Esophageal Squamous Cell Carcinoma)
Summary of the method: as §1

RD (Rhabdomyosarcoma) = test system: RD (Rhabdomyosarcoma)
Summary of the method: as §1

[5] = test system: JHH-4 (Hepatocellular Carcinoma)
Summary of the method: as §1

[6] = test system: KY821 (Acute Myeloid Leukemia)
Summary of the method: as §1

[7] = test system: NCI-H520 (Squamous Cell Lung Carcinoma)
Summary of the method: as §1

[8] = test system: DAN-G (Pancreatic Carcinoma)
Summary of the method: as §1

[9] = test system: SU-DHL-5 (B-Cell Non-Hodgkin's Lymphoma)
Summary of the method: as §1

[10] = test system: HCC1187 (Breast Carcinoma)
Summary of the method: as §1

[11] = test system: CW-2 (Colorectal Carcinoma)
Summary of the method: as §1

[12] = test system: VMRC-RCZ (Kidney Carcinoma)
Summary of the method: as §1

M059J (Glioblastoma) = test system: M059J (Glioblastoma)
Summary of the method: as §1

[13] = test system: DMS-114 (Small Cell Lung Carcinoma)
Summary of the method: as §1

[14] = test system: H9 (T-Cell Non-Hodgkin's Lymphoma)
Summary of the method: as §1

[15] = test system: SNU-398 (Hepatocellular Carcinoma)
Summary of the method: as §1

[16] = test system: NCI-H526 (Small Cell Lung Carcinoma)
Summary of the method: as §1

[17] = test system: CHSA8926 (Chondrosarcoma)
Summary of the method: as §1

[18] = test system: SK-GT-4 (Esophageal Adenocarcinoma)
Summary of the method: as §1

Row | Structure (SMILES) | combination Emax [1] | combination Emax [2] | combination Emax [3] | combination Emax [4] | combination Emax (RD (Rhabdomyosarcoma)) | combination Emax [5] | combination Emax [6] | combination Emax [7] | combination Emax [8] | combination Emax [9] | combination Emax [10] | combination Emax [11] | combination Emax [12] | combination Emax (M059J (Glioblastoma)) | combination Emax [13] | combination Emax [14] | combination Emax [15] | combination Emax [16] | combination Emax [17] | combination Emax [18]
1 | Cn1cnc2c(F)c(Nc3ccc(Br)cc3Cl)c(C(=O)NOCCO)cc21 [Selumetinib] + CCN(CCO)CCCOc1ccc2c(Nc3cc(CC(=O)Nc4cccc(F)c4)[nH]n3)ncnc2c1 [AZD2811] (first compound max 10 µM, 7x7, partner max 1 µM) | 0.113 | 0.109 | 0.852 | 0.269 | 0.297 | 0.63 | 0.843 | 0.17 | 0.519 | 0.915 | 0.94 | 0.349 | 0.152 | 0.237 | 0.281 | 1 | 0.662 | 0.32 | 0.139 | 0.533
2 | COc1nnc2ccc(N3CCC(c4ccc(OCCN5CCN(C)C(=O)[C@H]5C)cc4)CC3)nn12 [AZD5153] + CC1(C)CCC(CN2CCN(c3ccc(C(=O)NS(=O)(=O)c4ccc(NCC5CCOCC5)c([N+](=O)[O-])c4)c(Oc4cnc5[nH]ccc5c4)c3)CC2)=C(c2ccc(Cl)cc2)C1 [Venetoclax] (first compound max 1 µM, 7x7, partner max 1 µM) | 0.389 | 0.807 | 0.929 | 0.55 | 0.533 | 0.392 | 1 | 0.569 | 0.268 | 0.978 | 0.24 | 0.513 | 0.258 | 0.756 | 0.607 | 1 | 0.447 | 0.973 | 0.509 | 0.484
3 | Cc1cc2ncnn2cc1Nc1ncc2c(n1)n(C1CCOCC1)c(=O)n2C [AZD7648] + CCN(CCO)CCCOc1ccc2c(Nc3cc(CC(=O)Nc4cccc(F)c4)[nH]n3)ncnc2c1 [AZD2811] (first compound max 10 µM, 7x7, partner max 1 µM) | 0.285 | 0.334 | 0.831 | 0.276 | 0.214 | 0.245 | 0.495 | 0.704 | 0.554 | 0.993 | 0.824 | 0.164 | 0.276 | 0.457 | 0.306 | 0.722 | 0.363 | 0.356 | 0.47 | 0.389
4 | CN(CCO)CC[C@H](CSc1ccccc1)Nc1ccc(S(=O)(=O)NC(=O)c2ccc(N3CCC([C@@H](O)c4ccccc4-c4ccc(Cl)cc4)CC3)cc2)cc1S(=O)(=O)C(F)(F)F [AZD4320] + CCN(CCO)CCCOc1ccc2c(Nc3cc(CC(=O)Nc4cccc(F)c4)[nH]n3)ncnc2c1 [AZD2811] (first compound max 1 µM, 7x7, partner max 1 µM) | 0.0755 | 0.181 | 0.979 | 0.282 | 0.856 | 0.17 | 1 | 0.689 | 0.355 | 0.755 | 0.914 | 0.12 | 0.149 | 0.69 | 0.247 | 0.978 | 0.593 | 0.961 | 0.643 | 0.238
5 | Cc1cc2ncnn2cc1Nc1ncc2c(n1)n(C1CCOCC1)c(=O)n2C [AZD7648] + CN(C)CCCOc1ccc(-c2ccc3ncc4c(c3c2)n(C2CCOCC2)c(=O)n4C)cn1 [AZD0156] (first compound max 10 µM, 7x7, partner max 1 µM) | 0.358 | 0.282 | 0.274 | 0.246 | 0.195 | 0.247 | 0.417 | 0.614 | 0.597 | 0.66 | 0.104 | 0.207 | 0.256 | 0.321 | 0.293 | 0.331 | 0.194 | 0.15 | 0.446 | 0.315
6 | COc1nnc2ccc(N3CCC(c4ccc(OCCN5CCN(C)C(=O)[C@H]5C)cc4)CC3)nn12 [AZD5153] + CCN(CCO)CCCOc1ccc2c(Nc3cc(CC(=O)Nc4cccc(F)c4)[nH]n3)ncnc2c1 [AZD2811] (first compound max 1 µM, 7x7, partner max 1 µM) | 0.355 | 0.832 | 0.936 | 0.582 | 0.605 | 0.367 | 1 | 0.691 | 0.409 | 0.999 | 0.912 | 0.542 | 0.367 | 0.751 | 0.637 | 1 | 0.628 | 0.944 | 0.537 | 0.538
